Source: ChEMBL document CHEMBL4402508, “Natural product-drug conjugates for modulation of TRPV1-expressing tumors” (Bioorg Med Chem, 2019)
The source made the active and inactive calls. The calls are words filed in the database; no cut-off is given here.

Assays:
[1] = biological target: Transient receptor potential cation channel subfamily V member 1 (Homo sapiens) (UniProt Q8NER1); experiment: Agonist activity at TRPV1 (unknown origin) expressed in HEK-293 cells assessed as induction of calcium influx at 5 uM incubated for 48 hrs by Fura2-AM dye based calcium imaging assay; type: cell-based
[2] = biological target: Transient receptor potential cation channel subfamily V member 1 (Homo sapiens) (UniProt Q8NER1); experiment: Binding affinity to TRPV1 in human U251 cells assessed as compound internalization by measuring compound localization in intracellular compartment at 20 uM incubated for 24 hrs by azide-488 fluorophore based in situ click reaction assay and confocal microscopy; type: cell-based
[3] = biological target: Transient receptor potential cation channel subfamily V member 1 (Homo sapiens) (UniProt Q8NER1); experiment: Agonist activity at TRPV1 (unknown origin) expressed in HEK-293 cells assessed as induction of calcium influx at 50 uM incubated for 48 hrs by Fura2-AM dye based calcium imaging assay relative to capsaicin; type: cell-based
[4] = biological target: Transient receptor potential cation channel subfamily V member 1 (Homo sapiens) (UniProt Q8NER1); experiment: Agonist activity at TRPV1 (unknown origin) expressed in HEK-293 cells assessed as induction of calcium influx at 50 uM incubated for 48 hrs by Fura2-AM dye based calcium imaging assay; type: cell-based
[5] = Drug degradation in PBS assessed as hydrolysis of western conjugate region at 0.2 mM at 37 degC incubated up to 6 hrs by LC-MS analysis; type: physicochemical; conditions: buffer, 200 µM; for Drug degradation: TDE = time-dependent effect
PC-3 = experiment: Cytotoxicity in […] expressing human PC3 cells assessed as reduction in cell viability at 200 uM incubated for 24 to 72 hrs by Cell-titer blue assay; type: functional, cell-based; conditions: TDE = time-dependent effect

Sequence of Transient receptor potential cation channel subfamily V member 1 (Homo sapiens) (Q8NER1 whole entry): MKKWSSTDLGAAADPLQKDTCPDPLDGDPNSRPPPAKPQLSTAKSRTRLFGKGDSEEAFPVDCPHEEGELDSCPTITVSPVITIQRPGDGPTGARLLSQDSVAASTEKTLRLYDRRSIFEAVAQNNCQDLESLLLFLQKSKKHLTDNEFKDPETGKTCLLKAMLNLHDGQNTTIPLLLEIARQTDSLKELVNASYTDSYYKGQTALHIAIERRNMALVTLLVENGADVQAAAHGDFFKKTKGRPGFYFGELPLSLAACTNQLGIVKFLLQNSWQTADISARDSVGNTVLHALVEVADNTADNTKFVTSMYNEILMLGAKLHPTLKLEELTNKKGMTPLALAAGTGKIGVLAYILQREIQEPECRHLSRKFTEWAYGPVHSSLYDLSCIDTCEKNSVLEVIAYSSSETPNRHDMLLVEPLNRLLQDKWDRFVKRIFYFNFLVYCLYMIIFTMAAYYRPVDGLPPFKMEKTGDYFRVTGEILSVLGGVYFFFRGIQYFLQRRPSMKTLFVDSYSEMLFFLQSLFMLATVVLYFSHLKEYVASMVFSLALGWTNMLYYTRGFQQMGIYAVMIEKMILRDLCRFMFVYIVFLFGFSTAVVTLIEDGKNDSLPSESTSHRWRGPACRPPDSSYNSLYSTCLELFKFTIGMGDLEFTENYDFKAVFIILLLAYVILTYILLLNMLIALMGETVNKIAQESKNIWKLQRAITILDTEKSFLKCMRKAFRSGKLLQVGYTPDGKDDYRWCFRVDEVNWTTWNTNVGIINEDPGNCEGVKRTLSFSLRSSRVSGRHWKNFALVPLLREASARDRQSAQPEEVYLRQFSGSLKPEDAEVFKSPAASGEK

| Compound | Activity [1] | Activity [2] | Activity [3] [%] | Activity [4] | Drug degradation [5] | Activity (PC-3) | Stability [5] |
| --- | --- | --- | --- | --- | --- | --- | --- |
| C#CCCCCCCCCC(=O)NCc1ccc(O)c(OC)c1 | Active | Active |  |  |  |  |  |
| COc1cc(CNC(=O)CCCCCCNC(=O)c2ncn3c(=O)n(C)nnc23)ccc1O |  |  | 40 | Active | Tde | Tde |  |
| Cn1nnc2c(C(N)=O)ncn2c1=O |  |  |  |  |  | Tde |  |
| COc1cc(CNC(=O)CNC(=O)c2ncn3c(=O)n(C)nnc23)ccc1O |  |  | 40 | Active | Tde | Tde |  |
| COc1cc(CNC(=O)CCCCNC(=O)c2ncn3c(=O)n(C)nnc23)ccc1O |  |  | 40 | Active | Tde | Tde |  |
| COc1cc(CNC(=O)CCCC/C=C/C(C)C)ccc1O [CAPSAICIN] |  |  |  |  |  |  | Stable |
